Laboratory results as given in patent US10457710B2, “Antimicrobial peptides, their variants and uses” (priority 2015, dated 2019).
Where a SMILES comes first, the peptide text is derived from it. [ ]: non-standard residue; d: D form.

Experiments:
Type in all cases: cell-based
[1] = tested on: clinical strains of S. pneumoniae; test: MIC, microdilution, clinical strains; conditions: 0.02% BSA, 0.2% acetic acid
Method in brief: (§1)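 MIC = lowest peptide concentration without visual growth after 20–24 h at 37° C. Range 0.125–128 μg/ml, inoculum 5.0×10^5 cfu/ml, microdilution format. Antifungal tests used potato dextrose broth; bacterial tests used MH broth.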

[2] = tested on: clinical strains of Proteus mirabilis; test: MIC, microdilution, clinical strains; conditions: 0.02% BSA, 0.2% acetic acid
Method in brief: as §1

[3] = tested on: clinical strains of E. coli; test: MIC, microdilution, clinical strains; conditions: microdilution, Muller Hinton broth-cation adjusted, 0.02% BSA, 0.2% acetic acid
Method in brief: as §1

[4] = tested on: clinical strains of P. aeruginosa; test: MIC, microdilution, clinical strains; conditions: 0.02% BSA, 0.2% acetic acid
Method in brief: as §1

[5] = tested on: clinical strains of K. pneumoniae; test: MIC, microdilution, clinical strains; conditions: 0.02% BSA, 0.2% acetic acid
Method in brief: as §1

[6] = tested on: clinical strains of Serratia marcescens; test: MIC, microdilution, clinical strains; conditions: 0.02% BSA, 0.2% acetic acid
Method in brief: as §1

[7] = tested on: clinical strains of S. aureus; test: MIC, microdilution, clinical strains; conditions: 0.02% BSA, 0.2% acetic acid
Method in brief: as §1

[8] = tested on: clinical strains of E. cloacae; test: MIC, microdilution, clinical strains; conditions: 0.02% BSA, 0.2% acetic acid
Method in brief: as §1

C. quillermondiae = test: MIC, clinical yeast strains; conditions: clinical yeast strain 1; D-form peptide; concentrations tested 0.125 to 128 μg/ml
Method in brief: as §1

C. parapsilosis = test: MIC, clinical yeast strains; conditions: D-form peptide, concentrations tested 0.125 to 128 μg/ml
Method in brief: as §1

Candida albicans = test: MIC, clinical yeast strains; conditions: D-form peptide, concentrations tested 0.125 to 128 μg/ml
Method in brief: as §1

C. glabrata = test: MIC, clinical yeast strains; conditions: D-form peptide, concentrations tested 0.125 to 128 μg/ml
Method in brief: as §1

CC(C)C[C@@H](NC(=O)[C@@H](CCCCN)NC(=O)[C@@H](Cc1c[nH]c2ccccc12)NC(=O)[C@@H](CCCCN)NC(=O)[C@@H](C)NC(=O)[C@@H](Cc1c[nH]cn1)NC(=O)[C@@H](CC(C)C)NC(=O)[C@@H](CCCNC(=N)N)NC(=O)[C@@H](Cc1c[nH]c2ccccc12)NC(=O)[C@H](N)Cc1c[nH]c2ccccc12)C(=O)N[C@H](Cc1c[nH]c2ccccc12)C(=O)O [Chain109D] (H-[dW][dW][dR][dL][dH][dA][dK][dW][dK][dL][dW]-OH)
Minimum inhibitory concentration ([1]; Streptococcus pneumoniae strain 1, Muller Hinton broth-cation adjusted): 16
Minimum inhibitory concentration ([1]; Streptococcus pneumoniae strain 2, Muller Hinton broth-cation adjusted): 8
Minimum inhibitory concentration ([1]; Streptococcus pneumoniae strain 3, Muller Hinton broth-cation adjusted): 2
Minimum inhibitory concentration ([1]; Streptococcus pneumoniae strain 4, Muller Hinton broth-cation adjusted): 8
Minimum inhibitory concentration ([1]; Streptococcus pneumoniae strain 5, Muller Hinton broth-cation adjusted): 8
Minimum inhibitory concentration ([2]; Proteus mirabilis strain 1, Muller Hinton broth-cation adjusted): >128
Minimum inhibitory concentration ([2]; Proteus mirabilis strain 2, Muller Hinton broth-cation adjusted): 64
Minimum inhibitory concentration ([2]; Proteus mirabilis strain 3, Muller Hinton broth-cation adjusted): 64
Minimum inhibitory concentration ([2]; Proteus mirabilis strain 4, Muller Hinton broth-cation adjusted): >128
Minimum inhibitory concentration ([2]; Proteus mirabilis strain 5, Muller Hinton broth-cation adjusted): >128
Minimum inhibitory concentration ([3]; Escherichia coli strain 1): 16
Minimum inhibitory concentration ([3]; Escherichia coli strain 2): 4
Minimum inhibitory concentration ([3]; Escherichia coli strain 3): 4
Minimum inhibitory concentration ([3]; Escherichia coli strain 4): 4
Minimum inhibitory concentration ([3]; Escherichia coli strain 5): 4
Minimum inhibitory concentration ([4]; Pseudomonas aeruginosa strain 1, Muller Hinton broth-cation adjusted): 16
Minimum inhibitory concentration ([4]; Pseudomonas aeruginosa strain 2, Muller Hinton broth-cation adjusted): 16
Minimum inhibitory concentration ([4]; Pseudomonas aeruginosa strain 3, Muller Hinton broth-cation adjusted): 16
Minimum inhibitory concentration ([4]; Pseudomonas aeruginosa strain 4, Muller Hinton broth-cation adjusted): 16
Minimum inhibitory concentration ([4]; Pseudomonas aeruginosa strain 5, Muller Hinton broth-cation adjusted): 8
Minimum inhibitory concentration ([5]; Klebsiella pneumoniae strain 1, Muller Hinton broth-cation adjusted): 16
Minimum inhibitory concentration ([5]; Klebsiella pneumoniae strain 2, Muller Hinton broth-cation adjusted): 8
Minimum inhibitory concentration ([5]; Klebsiella pneumoniae strain 3, Muller Hinton broth-cation adjusted): 8
Minimum inhibitory concentration ([5]; Klebsiella pneumoniae strain 4, Muller Hinton broth-cation adjusted): 16
Minimum inhibitory concentration ([5]; Klebsiella pneumoniae strain 5, Muller Hinton broth-cation adjusted): 8
Minimum inhibitory concentration ([6]; Serratia marcescens strain 1, Muller Hinton broth-cation adjusted): >128
Minimum inhibitory concentration ([6]; Serratia marcescens strain 2, Muller Hinton broth-cation adjusted): >128
Minimum inhibitory concentration ([6]; Serratia marcescens strain 3, Muller Hinton broth-cation adjusted): >128
Minimum inhibitory concentration ([6]; Serratia marcescens strain 4, Muller Hinton broth-cation adjusted): >128
Minimum inhibitory concentration ([6]; Serratia marcescens strain 5, Muller Hinton broth-cation adjusted): 64
Minimum inhibitory concentration ([7]; Staphylococcus aureus strain 1, Muller Hinton broth-cation adjusted): 2
Minimum inhibitory concentration ([7]; Staphylococcus aureus strain 2, Muller Hinton broth-cation adjusted): 4
Minimum inhibitory concentration ([7]; Staphylococcus aureus strain 3, Muller Hinton broth-cation adjusted): 2
Minimum inhibitory concentration ([7]; Staphylococcus aureus strain 4, Muller Hinton broth-cation adjusted): 2
Minimum inhibitory concentration ([7]; Staphylococcus aureus strain 5, Muller Hinton broth-cation adjusted): 2
Minimum inhibitory concentration ([8]; Enterobacter cloacae strain 1, Muller Hinton broth-cation adjusted): 4
Minimum inhibitory concentration ([8]; Enterobacter cloacae strain 2, Muller Hinton broth-cation adjusted): 8
Minimum inhibitory concentration ([8]; Enterobacter cloacae strain 3, Muller Hinton broth-cation adjusted): 8
Minimum inhibitory concentration ([8]; Enterobacter cloacae strain 4, Muller Hinton broth-cation adjusted): 8
Minimum inhibitory concentration ([8]; Enterobacter cloacae strain 5, Muller Hinton broth-cation adjusted): 4
Minimum inhibitory concentration, C. quillermondiae strain 1 (C. quillermondiae): 128
Minimum inhibitory concentration, C. parapsilosis strain 1 (C. parapsilosis; clinical yeast strain 1): 128
Minimum inhibitory concentration, C. parapsilosis strain 2 (C. parapsilosis; clinical yeast strain 2): 128
Minimum inhibitory concentration, C. parapsilosis strain 3 (C. parapsilosis; clinical yeast strain 3): 128
Minimum inhibitory concentration, C. parapsilosis strain 4 (C. parapsilosis; clinical yeast strain 4): 8
Minimum inhibitory concentration, Candida albicans strain 1 (Candida albicans; clinical yeast strain 1): 128
Minimum inhibitory concentration, Candida albicans strain 2 (Candida albicans; clinical yeast strain 2): 128
Minimum inhibitory concentration, Candida albicans strain 3 (Candida albicans; clinical yeast strain 3): 128
Minimum inhibitory concentration, Candida albicans strain 4 (Candida albicans; clinical yeast strain 4): 128
Minimum inhibitory concentration, Candida albicans strain 5 (Candida albicans; clinical yeast strain 5): 128
Minimum inhibitory concentration, C. glabrata strain 1 (C. glabrata; clinical yeast strain 1): 128
Minimum inhibitory concentration, C. glabrata strain 2 (C. glabrata; clinical yeast strain 2): 128
Minimum inhibitory concentration, C. glabrata strain 3 (C. glabrata; clinical yeast strain 3): 16
Minimum inhibitory concentration, C. glabrata strain 4 (C. glabrata; clinical yeast strain 4): 64
